Reference: patent US8575158B2, “1-phenyl-substituted heterocyclyl derivatives and their use as prostaglandin D2 receptor modulators” (Actelion Pharmaceuticals Ltd., priority 2010, dated 2013)
pIC50: −log10 of the molar value.

Molecular target: T1, hCRTH2 receptor (Homo sapiens, UniProt Q9Y5Y4)
T1 construct: expressed in transfected cells; host or cells: HEK293
T1 sequence (Q9Y5Y4 1-395): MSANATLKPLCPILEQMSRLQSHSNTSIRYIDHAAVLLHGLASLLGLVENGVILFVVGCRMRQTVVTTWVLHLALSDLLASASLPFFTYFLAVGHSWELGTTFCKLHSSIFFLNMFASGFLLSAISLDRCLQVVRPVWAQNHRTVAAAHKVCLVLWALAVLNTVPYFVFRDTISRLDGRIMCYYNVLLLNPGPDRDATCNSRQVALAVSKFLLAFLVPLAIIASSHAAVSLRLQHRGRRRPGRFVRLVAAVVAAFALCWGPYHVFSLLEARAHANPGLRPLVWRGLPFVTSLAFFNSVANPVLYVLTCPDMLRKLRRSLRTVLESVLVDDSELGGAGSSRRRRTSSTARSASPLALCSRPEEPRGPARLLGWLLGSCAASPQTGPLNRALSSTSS
Test: Radioligand displacement assay (3H-PGD2) on hCRTH2 receptor membranes
Assay type: binding
Details: antagonistic activity

[1] = 3H-PGD2 radioligand displacement, HEK293-hCRTH2 membranes
[2] = 3H-PGD2 displacement on HEK293-hCRTH2 membrane fragments
[3] = radioligand displacement (3H-PGD2), hCRTH2 receptor membranes

| SMILES | pIC50 [1] | pIC50 [2] | further results |
| --- | --- | --- | --- |
| Cn1cncc1COC(=O)N1CCc2cc(F)ccc2[C@H]1c1cc(Cl)ccc1OCC(=O)O [Example 340, (S)-1-(2-Carboxymethoxy-5-chloro-phenyl)-6-fluoro-3,4-dihydro-1H-isoquinoline-2-carboxylic acid 3-methyl-3H-imidazol-4-ylmethyl ester] | 8.29 | – | – |
| O=C(O)COc1ccc(Cl)cc1C1c2ccccc2CCN1C(=O)Cc1c[nH]c2ccc(Cl)cc12 (racemic) [Example 96, (±)-(4-Chloro-2-{2-[2-(5-chloro-1H-indol-3-yl)-acetyl]-1,2,3,4-tetrahydro-isoquinolin-1-yl}-phenoxy)-acetic acid] | – | 6.76 | – |
| O=C(O)COc1ccc(S(=O)(=O)c2ccccc2)cc1C1c2ccccc2CCN1C(=O)OCc1ccccc1 (racemic) [Example 183] | – | 7.19 | – |
| O=C(O)COc1ccc(Cl)cc1[C@@H]1c2ccccc2CCN1C(=O)[C@@H]1C[C@H]1c1cccc(F)c1 [Example 565, (4-Chloro-2-{(S)-2-[(1R,2R)-2-(3-fluoro-phenyl)-cyclopropanecarbonyl]-1,2,3,4-tetrahydro-isoquinolin-1-yl}-phenoxy)-acetic acid] | – | – | pIC50 [3]: 8.58 |
| Cc1ccccc1CCCC(=O)N1CCc2ccccc2C1c1cc(Cl)ccc1OCC(=O)O (racemic) [Example 111, (±)-{4-Chloro-2-[2-(4-o-tolyl-butyryl)-1,2,3,4-tetrahydro-isoquinolin-1-yl]-phenoxy}-acetic acid] | – | 7.35 | – |
| O=C(O)COc1ccc(Cl)cc1C1c2ccccc2CCN1C(=O)COc1cccc(Cl)c1 (racemic) [Example 413] | 7.15 | – | – |
| O=C(O)COc1ccc(Cl)cc1C1c2ccccc2CN1C(=O)CCn1ncc2c(Cl)cccc21 (centres unmarked) [Example 550] | 6.62 | – | – |
| CS(=O)(=O)c1cccc2c1CCN(C(=O)OCc1ccccc1)C2c1cc(F)ccc1OCC(=O)O (racemic) [Example 185] | – | 7.10 | – |
| COCCC(=O)N1CCc2ccccc2C1c1cc(Cl)ccc1OCC(=O)O (racemic) [Example 70, (±)-{4-Chloro-2-[2-(3-methoxy-propionyl)-1,2,3,4-tetrahydro-isoquinolin-1-yl]-phenoxy}-acetic acid] | – | 6.86 | – |
| COc1cncc(OCC(=O)N2CCc3ccccc3C2c2cc(Cl)ccc2OCC(=O)O)c1 (racemic) [Example 477] | 6.54 | – | – |
| O=C(O)COc1ccc(F)cc1C1c2cc(F)cc(F)c2CCN1C(=O)OCc1ccccc1 (racemic) [Example 42, (±)-1-(2-Carboxymethoxy-5-fluoro-phenyl)-5,7-difluoro-3,4-dihydro-1H-isoquinoline-2-carboxylic acid benzyl ester] | – | 8.16 | – |
| O=C(O)COc1ccc(Cl)cc1[C@@H]1c2cccc(F)c2CCN1C(=O)OCc1cccc(F)c1 [Example 358, (S)-1-(2-Carboxymethoxy-5-chloro-phenyl)-5-fluoro-3,4-dihydro-1H-isoquinoline-2-carboxylic acid 3-fluoro-benzyl ester] | 8.55 | – | – |
| CCn1nc(C)cc1CCOC(=O)N1CCc2ccccc2[C@H]1c1cc(Cl)ccc1OCC(=O)O [Example 289, (S)-1-(2-Carboxymethoxy-5-chloro-phenyl)-3,4-dihydro-1H-isoquinoline-2-carboxylic acid 2-(2-ethyl-5-methyl-2H-pyrazol-3-yl)-ethyl ester] | 8.53 | – | – |
| O=C(O)COc1ccc(Cl)cc1[C@@H]1c2ccc(F)cc2CCN1C(=O)CCn1ncc2c(Cl)cccc21 [Example 402] | 6.77 | – | – |
| O=C(O)COc1ccc(Cl)cc1C1c2ccccc2CCN1C(=O)CCn1ccc2ccc(C(F)(F)F)cc21 (racemic) [Example 370] | 7.09 | – | – |
| O=C(O)COc1ccc(F)cc1C1c2ccccc2CCN1C(=O)CCN1C(=O)COc2ccc(Cl)cc21 (racemic) [Example 56, (±)-(2-{2-[3-(6-Chloro-3-oxo-2,3-dihydro-benzo[1,4]oxazin-4-yl)-propionyl]-1,2,3,4-tetrahydro-isoquinolin-1-yl}-4-fluoro-phenoxy)-acetic acid] | – | 6.13 | – |
| O=C(O)COc1ccc(Cl)cc1[C@@H]1c2ccc(F)cc2CCN1C(=O)OCc1nccs1 [Example 324, (S)-1-(2-Carboxymethoxy-5-chloro-phenyl)-6-fluoro-3,4-dihydro-1H-isoquinoline-2-carboxylic acid thiazol-2-ylmethyl ester] | 8.20 | – | – |
| Cc1noc(C)c1COC(=O)N1CCc2c(ccc(F)c2F)[C@H]1c1cc(Cl)ccc1OCC(=O)O [Example 307, (S)-1-(2-Carboxymethoxy-5-chloro-phenyl)-5,6-difluoro-3,4-dihydro-1H-isoquinoline-2-carboxylic acid 3,5-dimethyl-isoxazol-4-ylmethyl ester] | 8.48 | – | – |
| O=C(COc1ccc(Cl)cc1[C@@H]1c2ccccc2CCN1C(=O)OCc1ccccc1)NS(=O)(=O)C(F)(F)F [Example 568, (S)-1-[5-Chloro-2-(2-oxo-2-trifluoromethanesulfonylamino-ethoxy)-phenyl]-3,4-dihydro-1H-isoquinoline-2-carboxylic acid benzyl ester] | – | – | pIC50 [3]: 8.04 |
| O=C(O)COc1ccc(Cl)cc1[C@@H]1c2ccc(F)cc2CCN1C(=O)OCc1noc2ccccc12 [Example 348, (S)-1-(2-Carboxymethoxy-5-chloro-phenyl)-6-fluoro-3,4-dihydro-1H-isoquinoline-2-carboxylic acid benzo[d]isoxazol-3-ylmethyl ester] | 9.40 | – | – |
| Cc1cccc(COCC(=O)N2CCc3ccccc3C2c2cc(F)ccc2OCC(=O)O)c1 (racemic) [Example 193] | – | 7.56 | – |
| O=C(O)COc1ccc(Cl)cc1[C@@H]1c2ccccc2CCN1C(=O)OCc1ccccc1 [Example 26, (S)-1-(2-Carboxymethoxy-5-chloro-phenyl)-3,4-dihydro-1H-isoquinoline-2-carboxylic acid benzyl ester] | – | 8.34 | – |
| COc1ccc2[nH]c(CC(=O)N3CCc4ccccc4C3c3cc(Cl)ccc3OCC(=O)O)cc2c1 (racemic) [Example 99, (±)-(4-Chloro-2-{2-[2-(5-methoxy-1H-indol-2-yl)-acetyl]-1,2,3,4-tetrahydro-isoquinolin-1-yl}-phenoxy)-acetic acid] | – | 6.53 | – |
| Cn1cncc1COC(=O)N1CCc2ccccc2[C@H]1c1cc(Cl)ccc1OCC(=O)O [Example 290, (S)-1-(2-Carboxymethoxy-5-chloro-phenyl)-3,4-dihydro-1H-isoquinoline-2-carboxylic acid 3-methyl-3H-imidazol-4-ylmethyl ester] | 9.32 | – | – |
| O=C(O)COc1ccc(F)cc1C1c2ccccc2CCN1C(=O)Oc1ccccc1Cl (racemic) [Example 170] | – | 6.77 | – |
| O=C(O)COc1ccc(F)cc1[C@@H]1c2ccccc2CCN1C(=O)[C@@H]1C[C@H]1c1ccccc1 (single isomer, unassigned) [Example 30] | – | 6.04 | – |
| O=C(O)COc1ccc(F)cc1C1c2ccccc2CCN1C(=O)CCc1ccccc1Cl (racemic) [Example 131, (±)-(2-{2-[3-(2-Chloro-phenyl)-propionyl]-1,2,3,4-tetrahydro-isoquinolin-1-yl}-4-fluoro-phenoxy)-acetic acid] | – | 7.32 | – |
| O=C(O)COc1ccc(Cl)cc1C1c2ccccc2CCN1C(=O)[C@@H]1C[C@H]1c1ccccc1 (mixture of isomers) [Example 116, (±)-{4-Chloro-2-[2-(trans-2-phenyl-cyclopropanecarbonyl)-1,2,3,4-tetrahydro-isoquinolin-1-yl]-phenoxy}-acetic acid] | – | 8.27 | – |
| CCS(=O)(=O)c1cccc2c1CCN(C(=O)OCc1ccccc1)C2c1cc(F)ccc1OCC(=O)O (racemic) [Example 186] | – | 6.51 | – |
